{
  "source": "ChEMBL document CHEMBL5653631",
  "about": "“A Potent and Selective ULK1 Inhibitor Suppresses Autophagy and Sensitizes Cancer Cells to Nutrient Stress” (iScience, 2018)",
  "key": {"Homo sapiens": {"species": "Homo sapiens", "test": "Inhibition of human recombinant KHS1 at 500 nM related to control ULK1"}, "[1]": {"biological_target": "T1, Mitogen-activated protein kinase kinase kinase kinase 2 (Homo sapiens) (UniProt Q12851)", "T1 sequence (whole entry)": "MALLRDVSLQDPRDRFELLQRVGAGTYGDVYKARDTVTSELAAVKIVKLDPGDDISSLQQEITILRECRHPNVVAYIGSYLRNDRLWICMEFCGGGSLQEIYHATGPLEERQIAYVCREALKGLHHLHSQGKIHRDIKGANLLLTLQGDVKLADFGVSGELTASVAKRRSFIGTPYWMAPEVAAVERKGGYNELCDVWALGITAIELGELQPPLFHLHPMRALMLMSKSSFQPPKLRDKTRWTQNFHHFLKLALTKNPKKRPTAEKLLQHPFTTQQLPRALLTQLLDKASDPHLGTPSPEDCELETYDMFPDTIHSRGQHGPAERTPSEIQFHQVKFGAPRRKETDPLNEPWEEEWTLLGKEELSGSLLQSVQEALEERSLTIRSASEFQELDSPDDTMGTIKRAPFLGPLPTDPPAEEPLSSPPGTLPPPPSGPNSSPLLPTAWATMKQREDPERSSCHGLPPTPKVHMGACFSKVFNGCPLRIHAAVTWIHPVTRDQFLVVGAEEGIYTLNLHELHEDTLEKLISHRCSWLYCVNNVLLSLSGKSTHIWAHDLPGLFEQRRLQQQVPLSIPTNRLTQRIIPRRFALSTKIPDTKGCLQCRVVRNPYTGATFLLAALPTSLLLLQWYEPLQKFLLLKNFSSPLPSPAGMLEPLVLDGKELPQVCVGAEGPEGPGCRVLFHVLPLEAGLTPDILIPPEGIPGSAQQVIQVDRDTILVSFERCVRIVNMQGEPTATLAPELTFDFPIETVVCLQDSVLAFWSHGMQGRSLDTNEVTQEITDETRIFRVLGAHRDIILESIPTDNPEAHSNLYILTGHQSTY", "test": "Inhibition of human recombinant GCK at 500 nM in presence of ATP by radiometric assay relative to control"}, "[2]": {"biological_target": "Protein kinase C gamma type (Homo sapiens) (UniProt P05129)", "test": "Inhibition of human recombinant PKCg at 500 nM related to control ULK1"}, "[3]": {"biological_target": "Transient receptor potential cation channel subfamily M member 7 (Homo sapiens) (UniProt Q96QT4)", "sequence (Q96QT4 whole entry)": "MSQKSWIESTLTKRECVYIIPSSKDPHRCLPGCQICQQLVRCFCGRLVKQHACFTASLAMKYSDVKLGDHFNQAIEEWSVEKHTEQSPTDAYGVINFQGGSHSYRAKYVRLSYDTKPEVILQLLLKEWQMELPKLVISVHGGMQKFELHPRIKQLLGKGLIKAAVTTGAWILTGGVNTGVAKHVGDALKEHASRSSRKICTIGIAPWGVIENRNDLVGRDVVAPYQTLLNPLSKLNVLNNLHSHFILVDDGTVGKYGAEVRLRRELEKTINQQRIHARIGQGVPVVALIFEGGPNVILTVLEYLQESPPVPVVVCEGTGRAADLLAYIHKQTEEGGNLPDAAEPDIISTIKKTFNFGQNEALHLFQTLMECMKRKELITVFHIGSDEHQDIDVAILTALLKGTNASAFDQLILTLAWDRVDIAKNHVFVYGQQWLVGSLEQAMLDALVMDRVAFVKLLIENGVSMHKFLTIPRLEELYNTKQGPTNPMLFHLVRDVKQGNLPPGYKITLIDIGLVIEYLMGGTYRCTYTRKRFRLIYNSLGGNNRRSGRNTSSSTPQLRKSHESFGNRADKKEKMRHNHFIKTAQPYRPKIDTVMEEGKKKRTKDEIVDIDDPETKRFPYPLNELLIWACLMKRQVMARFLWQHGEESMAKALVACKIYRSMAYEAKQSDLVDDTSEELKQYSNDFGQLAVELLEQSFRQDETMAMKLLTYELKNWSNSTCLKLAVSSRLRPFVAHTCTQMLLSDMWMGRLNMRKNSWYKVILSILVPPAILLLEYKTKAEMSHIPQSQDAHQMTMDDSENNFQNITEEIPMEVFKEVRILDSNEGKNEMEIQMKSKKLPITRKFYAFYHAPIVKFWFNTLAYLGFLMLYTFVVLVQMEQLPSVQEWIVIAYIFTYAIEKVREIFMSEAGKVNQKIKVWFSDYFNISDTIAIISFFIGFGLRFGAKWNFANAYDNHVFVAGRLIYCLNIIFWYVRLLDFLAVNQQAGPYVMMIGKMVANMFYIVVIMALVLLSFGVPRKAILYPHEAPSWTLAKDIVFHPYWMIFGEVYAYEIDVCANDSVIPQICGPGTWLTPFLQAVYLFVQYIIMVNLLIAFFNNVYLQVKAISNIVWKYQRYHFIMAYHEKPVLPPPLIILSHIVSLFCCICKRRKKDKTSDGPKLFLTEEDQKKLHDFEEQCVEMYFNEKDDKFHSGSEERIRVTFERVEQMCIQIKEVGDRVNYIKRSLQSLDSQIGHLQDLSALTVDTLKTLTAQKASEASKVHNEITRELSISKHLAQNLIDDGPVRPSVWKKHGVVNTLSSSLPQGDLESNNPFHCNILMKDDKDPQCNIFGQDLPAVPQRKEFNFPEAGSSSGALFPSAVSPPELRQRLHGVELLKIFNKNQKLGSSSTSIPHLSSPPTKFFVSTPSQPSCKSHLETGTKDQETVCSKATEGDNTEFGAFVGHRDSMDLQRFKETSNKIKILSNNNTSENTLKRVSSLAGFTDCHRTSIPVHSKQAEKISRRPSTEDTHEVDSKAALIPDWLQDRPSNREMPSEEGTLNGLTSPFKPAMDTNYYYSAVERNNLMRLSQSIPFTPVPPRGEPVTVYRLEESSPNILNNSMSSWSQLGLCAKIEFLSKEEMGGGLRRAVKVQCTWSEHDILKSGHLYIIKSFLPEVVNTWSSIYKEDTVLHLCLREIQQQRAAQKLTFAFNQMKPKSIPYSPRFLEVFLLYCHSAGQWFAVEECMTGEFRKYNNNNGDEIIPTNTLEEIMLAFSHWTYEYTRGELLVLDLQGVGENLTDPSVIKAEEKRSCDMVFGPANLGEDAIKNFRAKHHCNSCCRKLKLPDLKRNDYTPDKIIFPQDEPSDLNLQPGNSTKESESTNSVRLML", "test": "Inhibition of human recombinant ChaK1 at 15 nM related to control ULK1"}, "[4]": {"biological_target": "Serine/threonine-protein kinase Nek4 (Homo sapiens) (UniProt P51957)", "sequence (P51957 whole entry, looked up)": "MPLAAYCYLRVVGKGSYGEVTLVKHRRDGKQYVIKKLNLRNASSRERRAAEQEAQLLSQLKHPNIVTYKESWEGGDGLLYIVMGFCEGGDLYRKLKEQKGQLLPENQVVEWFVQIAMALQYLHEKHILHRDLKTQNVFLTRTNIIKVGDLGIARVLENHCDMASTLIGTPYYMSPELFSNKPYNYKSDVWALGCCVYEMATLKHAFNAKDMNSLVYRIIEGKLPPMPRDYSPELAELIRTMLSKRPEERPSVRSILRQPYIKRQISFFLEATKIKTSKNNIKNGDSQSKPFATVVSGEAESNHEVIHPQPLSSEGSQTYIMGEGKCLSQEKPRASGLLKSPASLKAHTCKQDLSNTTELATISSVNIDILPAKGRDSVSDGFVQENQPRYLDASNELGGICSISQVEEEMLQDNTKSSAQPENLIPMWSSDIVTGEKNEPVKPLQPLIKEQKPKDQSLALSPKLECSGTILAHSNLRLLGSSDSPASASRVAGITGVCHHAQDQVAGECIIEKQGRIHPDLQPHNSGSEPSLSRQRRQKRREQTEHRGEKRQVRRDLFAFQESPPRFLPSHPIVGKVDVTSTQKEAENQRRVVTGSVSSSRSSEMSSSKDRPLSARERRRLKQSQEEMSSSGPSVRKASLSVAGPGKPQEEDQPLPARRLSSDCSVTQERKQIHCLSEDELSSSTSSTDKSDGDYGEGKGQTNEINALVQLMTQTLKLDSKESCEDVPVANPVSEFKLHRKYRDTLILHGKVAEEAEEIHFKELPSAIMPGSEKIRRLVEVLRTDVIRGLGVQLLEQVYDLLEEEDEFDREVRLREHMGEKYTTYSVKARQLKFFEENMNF", "test": "Inhibition of human recombinant NEK4 at 15 nM in presence of ATP by radiometric assay relative to control"}, "[5]": {"biological_target": "T2, Serine/threonine-protein kinase Nek3 (Homo sapiens) (UniProt P51956)", "T2 sequence (whole entry)": "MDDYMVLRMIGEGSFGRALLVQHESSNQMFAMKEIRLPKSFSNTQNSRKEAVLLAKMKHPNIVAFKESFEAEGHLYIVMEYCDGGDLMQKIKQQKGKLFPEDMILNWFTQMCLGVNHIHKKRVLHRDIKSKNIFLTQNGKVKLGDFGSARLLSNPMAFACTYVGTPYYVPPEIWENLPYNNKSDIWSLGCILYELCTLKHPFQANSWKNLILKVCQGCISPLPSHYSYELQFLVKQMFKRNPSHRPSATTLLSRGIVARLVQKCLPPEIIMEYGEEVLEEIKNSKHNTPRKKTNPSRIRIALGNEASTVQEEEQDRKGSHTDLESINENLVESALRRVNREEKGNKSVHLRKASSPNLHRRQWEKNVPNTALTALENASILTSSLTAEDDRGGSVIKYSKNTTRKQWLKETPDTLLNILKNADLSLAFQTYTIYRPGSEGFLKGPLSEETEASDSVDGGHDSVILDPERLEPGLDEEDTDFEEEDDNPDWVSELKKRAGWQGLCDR", "test": "Inhibition of human recombinant NEK3 at 15 nM related to control ULK1"}, "[6]": {"biological_target": "T3, Serine/threonine-protein kinase Nek2 (Homo sapiens) (UniProt P51955)", "T3 sequence (whole entry)": "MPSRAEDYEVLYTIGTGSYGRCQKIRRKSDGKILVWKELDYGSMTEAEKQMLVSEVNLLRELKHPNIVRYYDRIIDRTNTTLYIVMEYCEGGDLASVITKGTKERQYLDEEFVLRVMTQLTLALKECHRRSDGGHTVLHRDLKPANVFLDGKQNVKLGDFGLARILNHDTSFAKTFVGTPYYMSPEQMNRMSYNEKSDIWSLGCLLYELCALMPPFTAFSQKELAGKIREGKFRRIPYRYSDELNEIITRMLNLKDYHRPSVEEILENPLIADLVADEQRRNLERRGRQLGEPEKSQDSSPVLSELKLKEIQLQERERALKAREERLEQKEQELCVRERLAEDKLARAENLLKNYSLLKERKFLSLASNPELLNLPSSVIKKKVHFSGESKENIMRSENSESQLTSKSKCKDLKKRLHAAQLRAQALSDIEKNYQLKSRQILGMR", "test": "Inhibition of human recombinant NEK2 at 40 nM in presence of ATP by radiometric assay relative to control"}, "[7]": {"biological_target": "Serine/threonine-protein kinase MRCK alpha (Homo sapiens) (UniProt Q5VT25)", "test": "Inhibition of human recombinant MRCKa at 40 nM related to control ULK1"}, "[8]": {"biological_target": "Serine/threonine-protein kinase SIK2 (Homo sapiens) (UniProt Q9H0K1)", "sequence (Q9H0K1 whole entry, looked up)": "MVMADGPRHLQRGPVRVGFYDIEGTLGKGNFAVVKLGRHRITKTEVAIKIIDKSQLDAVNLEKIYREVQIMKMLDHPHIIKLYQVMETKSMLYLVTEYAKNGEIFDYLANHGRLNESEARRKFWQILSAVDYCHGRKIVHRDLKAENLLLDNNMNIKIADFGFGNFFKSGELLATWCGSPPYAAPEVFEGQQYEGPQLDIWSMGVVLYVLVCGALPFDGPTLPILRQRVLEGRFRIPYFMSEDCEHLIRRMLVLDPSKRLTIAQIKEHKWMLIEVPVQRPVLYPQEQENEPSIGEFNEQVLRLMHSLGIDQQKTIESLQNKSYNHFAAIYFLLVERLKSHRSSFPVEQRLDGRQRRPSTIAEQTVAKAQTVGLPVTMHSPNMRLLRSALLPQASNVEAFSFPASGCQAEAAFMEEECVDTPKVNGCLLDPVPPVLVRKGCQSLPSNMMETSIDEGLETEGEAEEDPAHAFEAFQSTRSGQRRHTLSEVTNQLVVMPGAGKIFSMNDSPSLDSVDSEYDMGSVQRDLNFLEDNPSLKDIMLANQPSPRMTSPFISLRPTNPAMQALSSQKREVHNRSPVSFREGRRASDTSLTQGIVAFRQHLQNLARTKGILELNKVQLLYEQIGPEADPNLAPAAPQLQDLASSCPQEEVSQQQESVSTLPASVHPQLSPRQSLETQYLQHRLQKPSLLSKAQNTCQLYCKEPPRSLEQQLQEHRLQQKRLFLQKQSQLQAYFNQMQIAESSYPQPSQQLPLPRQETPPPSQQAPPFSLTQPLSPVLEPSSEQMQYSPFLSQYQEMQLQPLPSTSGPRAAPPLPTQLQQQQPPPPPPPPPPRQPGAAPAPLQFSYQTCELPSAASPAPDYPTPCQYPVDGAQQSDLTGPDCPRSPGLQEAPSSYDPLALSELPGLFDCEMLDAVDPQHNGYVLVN", "test": "Inhibition of human recombinant QIK at 40 nM in presence of ATP by radiometric assay relative to control"}, "[9]": {"biological_target": "T4, cGMP-dependent protein kinase 1 (Homo sapiens) (UniProt Q13976)", "T4 sequence (whole entry)": "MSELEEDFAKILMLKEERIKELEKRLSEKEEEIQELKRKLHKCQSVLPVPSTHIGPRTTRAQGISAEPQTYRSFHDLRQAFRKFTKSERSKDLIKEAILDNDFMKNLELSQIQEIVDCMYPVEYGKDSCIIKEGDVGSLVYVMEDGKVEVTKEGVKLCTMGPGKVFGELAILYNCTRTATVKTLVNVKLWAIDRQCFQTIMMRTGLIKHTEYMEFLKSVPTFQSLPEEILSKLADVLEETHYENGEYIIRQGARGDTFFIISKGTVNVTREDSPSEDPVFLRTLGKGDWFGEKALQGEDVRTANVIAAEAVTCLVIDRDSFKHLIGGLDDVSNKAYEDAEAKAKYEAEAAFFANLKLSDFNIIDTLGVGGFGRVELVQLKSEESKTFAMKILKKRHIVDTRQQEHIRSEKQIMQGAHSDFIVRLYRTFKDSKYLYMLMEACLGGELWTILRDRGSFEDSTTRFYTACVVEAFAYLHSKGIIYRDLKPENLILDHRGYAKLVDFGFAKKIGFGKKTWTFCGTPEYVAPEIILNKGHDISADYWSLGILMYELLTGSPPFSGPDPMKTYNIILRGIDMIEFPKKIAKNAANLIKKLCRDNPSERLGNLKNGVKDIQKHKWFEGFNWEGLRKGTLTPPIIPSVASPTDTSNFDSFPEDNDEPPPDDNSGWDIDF", "test": "Inhibition of human recombinant PKG1 at 40 nM in presence of ATP by radiometric assay relative to control"}},
  "data": [
    {"molecule": "CNC(=O)c1ccccc1Oc1nc(Nc2cc(OC)c(OC)c(OC)c2)ncc1Br", "values": [
      {"measurement": "fold change (FC)", "setting": "Homo sapiens", "result": 0.15},
      {"measurement": "inhibition", "setting": "[1]", "result": 33, "unit": "%"},
      {"measurement": "fold change (FC)", "setting": "[2]", "result": 0.12}
    ]},
    {"molecule": "CC(C)[C@H](NC(=O)c1cc(-c2cnn3cc(-c4ccc(OCCN5CCCCC5)cc4)cnc23)cs1)C(F)(F)F", "values": [
      {"measurement": "fold change (FC)", "setting": "[3]", "result": 0.14},
      {"measurement": "inhibition", "setting": "[4]", "result": 6, "unit": "%"},
      {"measurement": "fold change (FC)", "setting": "[5]", "result": 0.01}
    ]},
    {"molecule": "O=C(N[C@@H](C1CC1)C(F)(F)F)c1cc(-c2cnn3cc(-c4ccc(F)cc4)cnc23)cs1", "values": [
      {"measurement": "inhibition", "setting": "[6]", "result": 0, "unit": "%"},
      {"measurement": "fold change (FC)", "setting": "[7]", "result": 0.03},
      {"measurement": "inhibition", "setting": "[8]", "result": 54, "unit": "%"},
      {"measurement": "inhibition", "setting": "[9]", "result": 6, "unit": "%"}
    ]}
  ]
}
